Experimental findings from a melting point compilation (Tetko et al.) are described below.

By melting point is commonly meant the temperature, or range, at which the solid turns liquid.

`CNC(=O)c1c[nH]c2ccccc12` showed a melting point of 203 to 205 °C.
Next, `O=C(O)c1cccc(S(=O)(=O)N2CCOCC2)c1`: 198 to 200 °C.
Next, `Fc1ccc(NC2CCOCC2)nc1`: 115 to 117 °C; `CC(=O)NCc1ccc(C(=O)CCl)s1`: 143 to 145 °C; `NS(=O)(=O)Cc1cccc(C(=O)O)c1`: 234 to 236 °C.
The compound `COc1ccccc1C(=O)NC(C(=O)O)C(C)C` (stereo not drawn) showed a melting point of 128 to 129 °C.
`O=C(O)c1cn(-c2ccccc2)nc1-c1ccccc1`: the melting point is 202 to 204 °C.
As to `COc1ccccc1-c1ncc(C(=O)O)[nH]1`, the melting point fell in the range of 219 to 221 °C.
Take `Cc1csc(Sc2ccc(N)cc2)n1`: the melting point was in the range of 99 to 101 °C.
Next, `CC(C)(C)c1ccc2c(c1)C(=O)C(=O)N2`: 145 to 147 °C; `O=C1C=CC=NC1=C(O)Nc1ccncc1`: 164 to 166 °C; `C[C@H](NC(=O)C1CCCCC1)C(=O)O`: 127 to 129 °C.
Compound `Nc1c(O)c(Cl)cc(Cl)c1Cl` yielded a melting point of 119 to 121 °C.
`N#Cc1cccnc1N1CCCC1` yielded a melting point of 36 to 38 °C.
For `COCCc1nnc(-c2cccc(C(=O)O)c2)o1` the value was 156 to 158 °C; for `N#CCc1cn(-c2ccccc2)nc1-c1ccc(Cl)cc1`, 126 to 128 °C.
For `Nc1nc2ccccc2n1CCCn1ccnc1` the value was 178 to 180 °C; for `COC(=O)C(C#N)c1nc2ccccc2nc1Cl` (stereo not drawn), 197 to 199 °C.
In turn, `COC(=O)C(=O)CC(=O)c1c(F)cccc1F` yielded a melting point of 88 to 90 °C.
Next, `Cc1c(S(=O)(=O)Cl)cnn1-c1ccccn1`: 53 to 55 °C; `O=C(CCl)NCCc1nc2ccccc2s1`: 90 to 92 °C.
For `CC1(C)CC(NC(=O)CCl)CC(C)(C)N1` the value was 61 to 63 °C.
Compound `COc1ccc2[nH]c(C(=O)O)cc2c1OC` came in with a melting point of 221 to 223 °C.
Compound `O=C1CSCc2ccccc21` returned a melting point of 56 to 58 °C.
Next, `O=C(O)C(=Cc1cccnc1)NC(=O)c1ccccc1`: 189 to 191 °C.
For `O=c1[nH]c(=O)c2ccccc2s1` the value was 292 to 294 °C; for `Cn1ccnc1Sc1ccc(N)cc1`, 117 to 119 °C.
Next, `O=C(O)CNC(=O)c1ccccc1C(F)(F)F`: 152 to 154 °C.
Take `CC(=O)c1oc2ccccc2c1NC(=O)C(C)Cl` (stereo not drawn): the melting point lay within 105 to 107 °C.
Next, `O=C(O)CSC1CCS(=O)(=O)C1` (stereo not drawn): < 17 °C; `C1CCc2nnc(C3CCCNC3)n2CC1` (stereo not drawn): 171 to 173 °C.
Turning to `O=C(CO)N1CCc2ccccc2C1`, the melting point was in the range of 99 to 101 °C.
Next, `CCOC(=O)C1=C(CC)Nc2ccccc2N=C1N`: 152 to 154 °C.
Next, `NC(=O)c1ccc(N)nn1`: 256 to 258 °C; `Nc1ccccc1OCC(=O)N1CCOCC1`: 111 to 113 °C.
Next, `CC(C)Oc1nnc(S)s1`: 105 to 107 °C; `O=C(CCl)c1c[nH]c2ccccc12`: 183 to 185 °C.
Consider `CC(C)(C)C1CCc2sc(C(=O)O)cc2C1` (stereo not drawn), for which the melting point was in the range of 169 to 171 °C.
`O=C1NC(=O)c2ncccc21`: the melting point is 241 to 243 °C.
On to `CC(C#N)CNC(=O)OC(C)(C)C` (stereo not drawn), for which the melting point is 77 to 79 °C.
The compound `Cc1sc2ncnc(NCC(=O)O)c2c1C` yielded a melting point of 244 to 246 °C.
Compound `CCNC1=NCC(c2ccccc2)S1` (stereo not drawn) came in with a melting point of 99 to 101 °C.
For `O=c1[nH]c2ccc(NCc3ccc(F)cc3)cc2[nH]1`, the melting point lay within 251 to 253 °C.
For `CC(C)c1nnc(N)o1` the value was 184 to 186 °C; for `O=C1NC(=O)C(c2cccc(Br)c2)N1` (stereo not drawn), 185 to 187 °C; for `CC1(C)CCC(CC(=O)O)c2ccccc21` (stereo not drawn), 81 to 83 °C.
As for `CCC(C)NC(=O)CN1CCNCC1` (stereo not drawn), the melting point is 55 to 57 °C.
For `Cc1nccn1-c1ccc(Cl)nn1` the value was 122 to 124 °C.
